This is an account of results in article PMC11546719, “Immune Modulatory Profile of the Pateamines PatA and Des-Methyl Des-Amino PatA” (International Journal of Molecular Sciences, 2024).

Read-outs that look alike come from different tables or passages of the source.

In series [1] the test system is M1 MdMs. Set-up: method as in PMID 36982945. The following applies: summary table ref 11; cited from earlier work.
Another series concerns M2 MdMs. Set-up: method as in PMID 36982945. The following applies: summary table ref 11; cited from earlier work.
Another series deals with Human primary T cells. Set-up: method as in PMID 36982945. Particulars: summary table ref 11; cited from earlier work.
In series [2] the test system is Human primary B cells. The arrangement: method as in PMID 36982945. The following applies: summary table ref 11; cited from earlier work.
Another series concerns T cells. Description: Energy metabolism (Seahorse OCR/ECAR) in T cells. The format is cell-based, human. Particulars: 5 days, PatA, DMDA 0.25-0.5 nM, silvestrol 5 nM. As to the method:
(§1) The determination of the energy metabolism was performed as described previously. Briefly, for the analysis of the extracellular acidification rate (ECAR) and the oxygen consumption rate (OCR) for human B cells, Tcells, M1 MdMs and M2 MdMs, the Seahorse XFe96 FluxPak (Agilent, Waldbronn, Germany) was used as recommended by the manufacturer. MdMs were polarized to M1 or M2 MdMs in the presence of PatA (0.5, 2.5, 5 nM), DMDA (0.5, 2.5, 5 nM) or vehicle (DMSO) for 48 h or 24 h, respectively. T cells were activated in the presence of PatA (0.25, 0.5 nM), DMDA (0.25, 0.5 nM), silvestrol or DMSO. B cells were activated in the presence of PatA (0.25, 0.5 nM), DMDA (0.25, 0.5 nM), silvestrol (5 nM) or rapamycin (10 ng/mL positive control). Cells were washed with Seahorse XF RPMI medium pH 7.4 (Agilent, Waldbronn, Germany) and OCR and ECAR were measured as octuplicates for a period of 160 min using the Seahorse XFe96 Analyzer (Agilent, Waldbronn, Germany) and analyzed by Wave Software 2.6.3.8 (Agilent, Waldbronn, Germany). The relative values were calculated by relating the OCR or ECAR values obtained after 50 min to the values of the vehicle control (not stimulated).

For the next series, the system named is B cells. In words: Energy metabolism (Seahorse OCR/ECAR) in B cells. The format is cell-based, human. Particulars: 5 days, PatA, DMDA 0.25-0.5 nM, silvestrol 5 nM, rapamycin 10 ng/mL. Here is the method:
as §1

In a further series the test system is TK6 cells. Description: Micronuclei assay. The class given is cell-based, human. The following applies: 4 h incubation then 44 h. As to the method: The In-Vitro Micronuclei Plus assay (Becton Dickinson, Heidelberg, Germany) was performed as described by the supplier. Briefly, 2 × 10^4 TK6 cells were incubated with increasing concentrations of PatA, DMDA and silvestrol for 4 h. The cells were washed with PBS and incubated in fresh medium (without test substance) for 44 h. The cells were centrifuged (300× g) for 5 min, the […] and placed on ice for 20 min. Then, 50 µL of Complete Nucleic Acid Dye A Solution was added. The plate was placed on ice and exposed to visible light for 30 min. The Nucleic Acid Dye A solution was removed and the cells were washed with 0.15 mL of cold 1x Buffer Solution. An amount of 100 µL Complete Lysis Solution 1 was added, followed by gently mixing of the plate for 5 s and incubation of 1 h in the dark at 37 °C. Then, 100 µL Complete Lysis Solution 2 was added and incubated for 30 min in the dark at room temperature. The cells were analyzed via flow cytometry with the MACSQuant 10 (Miltenyi GmbH, Bergisch Gladbach, Germany).

The test system of series [3] is M1 MdMs. The arrangement: method as in PMID 36982945. Particulars: M1 MdMs ref 11; cited from earlier work.
A further series relates to Caco-2 cell barrier. Description: Transport assay, Caco-2 cell barrier. The class given is in vitro ADME. As to the method: (§2) The transport assay was achieved as described previously. Briefly, 1 × 10^5 CaCo-2 or 5 × 10^4 Calu-3 cells in 300 µL medium were seeded on 24-well ThinCerts (pre-coated with FCS for 60 min) and in the lower compartment, 1 mL culture medium per well was added. The Caco-2 cell barrier was generated over 20 days and the Calu-3 barrier was generated over 14 days. DMDA (0 nM, 5 nM, 50 nM, 100 nM), PatA (0 nM, 5 nM, 50 nM, 100 nM), 200 µM famotidine, 200 µM lucifer yellow or 200 µM carbamazepine diluted in medium was added to the apical compartment and incubated for 4 h or 24 h. The medium from the basolateral and apical compartment was collected and stored at −20 °C and analyzed using LC-MS/MS. To obtain the transport rate, the drug amount in the basolateral compartment at 4 h or 24 h was related to the drug amount in the apical compartment (0 h).
(§3) The detailed method for the analysis of DMDA, PatA, carbamazepine and famotidine using LC-MS/MS is described in the Supplementary Materials.

The next series relates to Calu-3 cell barrier. Description: Transport assay, Calu-3 cell barrier. The format is in vitro ADME. Here is the method: as §2, §3
Series [4] has as its system Human primary B cells. In words: B cell activation with IL-21, sCD40L, CpG and anti-IgM. The format is cell-based. Particulars: activated B cells, 5 days. As to the method: B cells were activated as described by Khoenkhoen et al.. […].
Surface marker analysis was performed as described previously. Briefly, 1.5–2 × 10^5 cells of each sample were blocked with human FcR Blocking Reagent (15 min, 4 °C). […]. Afterwards, samples were stained with a mixture of different surface marker antibodies (15 min, 4 °C) and measured with MACSQuant® Analyzer 10 flow cytometer. For M1-/M2-MdMs anti-CD86, anti-CD14, anti-HLA-DR, anti-CD206, anti-CD80, anti-TREM2 and anti-CD163 were used. For T cells, anti-CD69, anti-CD54, anti-CD49a, anti-CD18, anti-CD134, anti-CD154, anti-CD3 and anti-CD25 were analyzed. For B cells, anti-CD27, anti-CD19 and anti-CD38 were applied. For T cell and B cell proliferation assay, freshly isolated T and B cells were stained with CTV and detected using flow cytometry. Naïve B cells were characterized as CD19^+CD27^lowCD38^med, memory B cells as CD19^+CD27^med CD38^low and plasma cells as CD27^+CD38^+ cells. M1 MdMs and M2 MdMs cell population was gated using FSC/SSC channel. T cells were gated as CD3^+CD25^+ positive cells. The geometric mean of the fluorescent intensity was calculated using FlowJo software v10 (Treestar, Ashland, […], USA). Fold induction of surface marker expression was calculated using the DMSO-treated cells as the control.
For determination of cytokine concentrations in the supernatant of humane immune cells, cytometric bead array (BD Biosciences, Heidelberg, Germany) for IL-10, IL-17, IL-8, IL-6, IFN-γ and CCL2 was used. For the detection of CCL18, CCL17, IgG, IgA and PGE2, an ELISA was performed. The cytometric bead arrays and the ELISAs were performed according to the protocol of the supplier.

Setting [5] is: 4 and 24 h, PatA, DMDA 5, 50, 100 nM, controls 200 µM.

As to `CONC(=O)[C@H]1[C@@H](O)[C@@]2(O)c3c(OC)cc(OC)cc3O[C@@]2(c2ccc(OC)cc2)[C@@H]1c1ccccc1` [CR31-B (-)], in the series on M1 MdMs [1], the “Effect on the release of inflammatory markers, M1 MdM” value (“Effect on the release … M1 MdM” below) is “IL-6↓, IL-8↓, CCL2↓, CCL18↓”. Also, the “Effect on the release of inflammatory markers, M2 MdM” value (“Effect on the release … M2 MdM” below) in the series on M2 MdMs is on record as “TNF-α↑, CCL2↓, CCL17↓, CCL18↓,”. Besides, in the series with Human primary T cells, the “Effect on the release of inflammatory markers, T Cells” value (“Effect on the release … T Cells” below) was “IL-10↓, IL-17↓, IFN-γ↓”. Moreover, the “Effect on the release of inflammatory markers, B Cells” value (“Effect on the release … B Cells” for short) in the series with Human primary B cells [2] is given as “IgA↓, IgG↓”.
`COC(=O)[C@H]1[C@@H](O)[C@@]2(O)c3c(OC)cc(O[C@@H]4O[C@@H]([C@H](O)CO)CO[C@H]4OC)cc3O[C@@]2(c2ccc(OC)cc2)[C@@H]1c1ccccc1` [Silvestrol, silvestrol]: the “Energy metabolism: glycolysis (ECAR) and oxidative phosphorylation (OCR)” value in the series on T cells is “did not alter the energy metabolism”; in the series on B cells, “increased glycolysis and oxidative phosphorylation”. Moreover, the “Genotoxic potential: micronuclei (clastogenic) and hypodiploid cells (aneugenic)” value with TK6 cells was “showed no genotoxic effects”. Besides, the “Effect on the release … M1 MdM” value with M1 MdMs [1] was “IL-6↓, IL-8↓, CCL2↓, TNF-α↑”. The “Effect on the release … M2 MdM” value in the series with M2 MdMs is reported as “IL-8↓, CCL2↓,”. In addition, the “Effect on the release … T Cells” value in the series on Human primary T cells is reported as “IL-10↑, IFN-γ↑”. Also, the “Effect on the release … B Cells” value in the series on Human primary B cells [2] is given as “IgA↓, IgG↓”. In addition, in the series on M1 MdMs [3], the “Energy metabolism: glycolysis and oxidative phosphorylation” value is “reduced glycolysis and oxidative phosphorylation”.
As to `COc1cc2c(c(OC)n1)[C@]1(O)[C@H](O)[C@H](CN(C)C)[C@@H](c3ccccc3)[C@]1(c1ccc(C#N)cc1)O2` [Zotatifin, zotatifin], the “Effect on the release … M1 MdM” value in the series with M1 MdMs [1] is on record as “No effect”. Also, in the series with M2 MdMs, the “Effect on the release … M2 MdM” value is “IL-10↓, CCL18↓”. For the same molecule, in the series on Human primary T cells, the “Effect on the release … T Cells” value is listed as “IL-10↓, IL-17↓, IFN-γ↓”. Moreover, the “Effect on the release … B Cells” value in the series with Human primary B cells [2] is listed as “IgA↓, IgG↓”.
Take `NC(=O)N1c2ccccc2C=Cc2ccccc21` [carbamazepine, reference compound]: the “Permeability / transport rate across Caco-2 cell barrier (in words)” value in the series with Caco-2 cell barrier (setting [5]) is listed as “high”. Besides, the “Permeability / transport rate across Calu-3 cell barrier (in words)” value in the series with Calu-3 cell barrier (setting [5]) was “high”.
Take `NC(N)=Nc1nc(CSCCC(N)=NS(N)(=O)=O)cs1` [famotidine, reference compound]: the “Permeability / transport rate across Caco-2 cell barrier (in words)” value in the series with Caco-2 cell barrier (setting [5]) was “low permeability”. The “Permeability / transport rate across Calu-3 cell barrier (in words)” value with Calu-3 cell barrier (setting [5]) is “low permeability”.
Turning to `COS(C)(=O)=O` [methylmethansulfonat (MMS), methylmethansulfonat, reference compound], the “Genotoxic potential: micronuclei (clastogenic) and hypodiploid cells (aneugenic)” value in the series with TK6 cells is “significant increase in micronuclei and hypodiploid cells”.
In the case of `CO[C@H]1C[C@@H]2CC[C@@H](C)[C@@](O)(O2)C(=O)C(=O)N2CCCC[C@H]2C(=O)O[C@H]([C@H](C)C[C@@H]2CC[C@@H](O)[C@H](OC)C2)CC(=O)[C@H](C)/C=C(\C)[C@@H](O)[C@@H](OC)C(=O)[C@H](C)C[C@H](C)/C=C/C=C/C=C/1C` [rapamycin, reference compound], in the series on Human primary B cells [4], the “B cell activation (formation of plasma cells, proliferation, release of IgGs)” value was “prevented B cell activation” and the “Cell viability (zombie staining)” value was “did not reduce cell viability”.
In the case of lucifer yellow [reference compound], in the series with Caco-2 cell barrier (Caco-2), the “Permeability / transport rate across Caco-2 cell barrier (in words)” value is recorded as “low permeability”. In the series with Calu-3 cell barrier, the “Permeability / transport rate across Calu-3 cell barrier (in words)” value is recorded as “low permeability”.
